The subject of one data set is Fish. As to the kind of experiment: Fish toxicity. Conditions: in vivo.
A short description of data set [1]: Biodegradability (OECD 306).
The subject of another data set is Algal. As to the kind of experiment: Algal toxicity. Conditions: in vivo.

Read-outs that look alike come from different tables or passages of the source.

On to `S=c1[nH]c2ccccc2s1` [Mercaptobenzothiazole], for which the “Fish toxicity (LC50)” value in the data set with Fish is less than 10 µg/mL. Besides, in data set [1] (OECD 306), the “Biodegradability (OECD 306)” value is less than 20%. In addition, the “Algal toxicity (EC50)” value in the data set on Algal is less than 1 µg/mL.

`O=C(O)c1ccccc1SSc1ccccc1C(=O)O` [Dithiodi(benzoic acid), o-dithiodibenzoic acid]: in the data set on Fish, the “Fish toxicity (LC50)” value is greater than 100 µg/mL. Also, the “Biodegradability (OECD 306)” value in data set [1] (OECD 306) was greater than 30%. Further, the “Algal toxicity (EC50)” value in the data set on Algal was greater than 100 µg/mL.

N-Aminoethyloleyl-imidazoline: the “Fish toxicity (LC50)” value in the data set on Fish was less than 10 µg/mL. For the same molecule, in data set [1], the “Biodegradability (OECD 306)” value is on record as greater than 60%. For the same molecule, in the data set on Algal, the “Algal toxicity (EC50)” value is less than 1 µg/mL.

The values are drawn from patent publication US8759264B2, “Water-based hydraulic fluids comprising dithio-di(aryl carbolic acids)” (Clarient Finance (BVI) Limited, priority 2008, dated 2014).
